Results as given in patent US9445596B2, “Small molecule compounds for the control of nematodes” (California Institute of Technology, priority 2011, dated 2016).
Entries after “also recorded” stand apart in the source; their conditions may differ.

Experiments:
C. elegans = conditions: shown previously; cited from earlier work
[1] = system: C. elegans hermaphrodites and males; conditions: from 1 μM concentration; previous study (Srinivasan 2008); cited from earlier work
C. elegans males = assay: Attraction assay (long-range, point source); type: in vivo; conditions: point source on 10 cm plate
Procedure: 10 cm standard chemotaxis plates were prepared (Bargmann et al., Cell 74:515-27 (1993), which is hereby incorporated by reference in its entirety) and stored at 4° C. until the day before use. Standard 1 cm-diameter copper pipes were sectioned into 1 cm-tall segments to use for the holding chambers. The females/hermaphrodites were isolated overnight, washed 3 times in M9 buffer, and then allowed to wander on a plate pre-conditioned with 50 uL of 1000× streptomycin for 2 hours to kill any bacteria that might produce a false positive attractant. The nematodes were then washed 3 times, and the supernatant from the last wash was placed in a copper chamber, as the control, 1 cm from the border of the 10 cm plate. The nematodes were suspended in M9 within the copper chamber, 1 cm from the border opposite the control chamber. After 6 hours, they were subsequently removed and replaced with 3 μL of 1M sodium azide. 100 C. elegans adult males were isolated overnight, washed several times in ddH2O, and placed at the center of the agar plate. After several hours, males paralyzed within 2 cm of each region were scored. The Chemotaxis Index (Bargmann et al., Cell 74:515-27 (1993), which is hereby incorporated by reference in its entirety) was then used to score male chemotaxis to either point source.

C. elegans dauer larvae = assay: Dispersal assay, C. elegans dauer; type: in vivo; conditions: for dauer larvae that moved away from the release location, normalized to the percent of the positive control response: physiological concentration, with 0.25% E. coli (HB101), food only control approximately 35%; for substitution for ascr#2 in the C. elegans dispersal blend: in vivo
Procedure: C. elegans dauer juveniles were washed with MILLI-Q water 3 times, placed into 6 cm petri dishes with a small amount of water, and rested overnight. Approximately 200-300 nematodes in 10 μl of water were placed on an agar plate, to which 2 μl of treatment was added. The liquid culture that produced 60% dauer animals was centrifuged, filtered with a 0.45 μm filter, and used as a positive control for dispersal. Thereafter, media were lyophilized and resuspended in MILLI-Q water 5 times. 2 μl to 10 μl of nematode suspension was used for the assay. As a negative control, 0.5% E. coli (HB101) was prepared in S-complete, lyophilized, and adjusted to the final volume of 0.25% E. coli in the assay.
Nematodes were quantified using Image J software (Image Processing and Analysis in Java, National Institutes of Health). The number of nematodes visualized and counted using Image J is illustrated in FIG. 63B. Nematodes inside the circle were subtracted manually from the total number of worms counted because of the location of their placement. Each treatment was replicated 9-11 times. The graph was normalized to the positive control, the dauer conditioned medium.

[2] = system: several of the tested nematode species; assay: Retention assay, several nematode species; type: in vivo; conditions: 1 nM, 1 μM and 1 mM tested
Procedure: OP50 E. coli was grown on a standard 5 cm agar plate (made with standard Nematode Growth Medium). The bacterial lawn was 16 mm in diameter and was grown overnight at 20° C. before being used in trials. Two 4 mm spots (0.6 μL) were placed on opposite sides of the bacterial lawn (using a transparent template to guide spot placement), and several minutes elapsed for the liquid to settle in before placing nematodes down on the assay. Recording began immediately upon worm placement. 0.6 μL of the control was placed on one side of the lawn, and 0.6 μL of the experimental cue was placed on the other side of the lawn, changing the location of the cue throughout trials between left/right and top/bottom to avoid bias.
Nematodes were isolated by gender at the L4 stage the day before being used in trials as developed adults. Worms were evenly divided and placed at two points equidistant from the foci of the scoring region. Trials were recorded for 20 minutes, and frames were collected for analysis at 1 frame per second. Results were averaged from at least three different trials. For every nematode species in this study, a different total number of worms (using water in both scoring regions) was tested to determine the minimum number of worms necessary for consistent unbiased results over a 20 minute trial. The total number of worms used in the multiple species assays depended on that species' optimal parameters. 10 worms were used for P. redivivus males and females, 20 worms were used for C. elegans males and O. dolichuridae males, and 14 worms were used for S. glaseri males. The Automated Software was used to compare worm occupancy in each scoring region over time, and the Chemotaxis Index (Bargmann et al., Cell 74:515-27 (1993), which is hereby incorporated by reference in its entirety) was adapted to score preference or avoidance to each ascaroside.
A video camera attached to the microscope produced a digital video stream, which was then analyzed. The ratio of the time the average worm spent in each region of interest was calculated for every trial. For ease of implementation, all worms in a single experiment were assumed to be roughly the same size. Thus worm pixels were counted instead of whole worms, allowing fractions of a worm in the region of interest to be taken into account. It also eliminated the need for a shape-based worm identification algorithm, and allowed each frame to be analyzed independently. A band-pass filter was applied to each frame to eliminate the effect of uneven lighting and also accentuate the worms against the background. The worm was then identified after thresholding the filtered image. Throughout each experiment, the locations and sizes of the regions of interest were known. Through the filtering described above, it is known which pixels are occupied by worms and which ones are not. Thus, the ratio of worm-pixels to all pixels inside the region of interest can be calculated to produce the worm-occupancy ratio. This calculation was done for every frame, giving a plot output of worm-occupancy ratio vs. time for each region.

S. feltiae IJs = assay: Dispersal assay, S. feltiae infective juveniles; type: in vivo; conditions: for dispersal activity in combination with natural fractions B and C: ascr#9 40 pmol/μl, ascr#11 1.3 pmol/μl; for dispersal activity when tested alone: physiologically relevant concentrations
Procedure: S. feltiae IJs were washed with MILLI-Q water three times and incubated in 6 cm petri dishes for […] with a small amount (4-5 ml) of MILLI-Q water. Nematodes were placed the following day on a 10.7 g/L agar with 1010 g/cm^2 gel strength (PhytoTechnology Lab. Shawnee Mission, Kans.). Nematode behavior was assayed on multiple plates with internal plate replicates to rule out the possibility that behavior was affected by plate composition. Approximately 300 IJs in 10 μl water were placed on an agar medium and the test compounds or extracts (1-2 μl) were placed into the nematode suspension. Upon absorption (˜15 minutes) of the liquid, the freely moving nematodes were video recorded for 5-10 minutes. Dispersal behavior is temperature and season dependent. During winter, the assay is effective at room temperature (22±1° C.). During summer, the assay requires a temperature controlled environment due to the effects on nematode behavior above 23° C.
Activity-guided fractionation was conducted as reported in Srinivasan et al., Nature 454:1115-18 (2008), which is hereby incorporated by reference in its entirety, with modifications. A total of 33 insect host cadavers (G. mellonella larvae) were placed into 70% EtOH and stored at −20° C. until extraction. The insect cadavers were homogenized using 1 g of ceramic zirconium beads (1.25 mm) (ZIRMIL) in 2 ml tubes for 37 seconds using a Precellys24 homogenizer. Samples were centrifuged for 15 minutes at 18400 relative centrifugal force (rcf), and the supernatant was lyophilized and resuspended in MILLI-Q water. The dispersal activity of nematodes was tested using the dispersal assay described in Example 60 and a physiologically relevant concentration of insect host cadaver extract or fractionated extract. To facilitate calculations for physiologically relevant concentration of the ascarosides, wax worm volume was estimated at ˜200 μl; the average weight of wax worms was 232+57 mg (n=19).
The first reverse-phase solid-phase extraction was performed using Sep-Pak Plus C18 cartridges (Waters corporation, Milford, Mass.). The initially collected flow through was termed Fraction A. Thereafter, the column was washed with water, collected, and saved. Subsequently, the column was eluted with 50% (Fraction B) and 90% (Fraction C) MeOH. The fractions were tested for dispersal activity both individually and in combination. Also, individual fractions were analyzed by LC-MS. Fraction A contained ascr#9, which was collected by LC-MS and tested for activity with Fraction B+C.

[3] = system: P. pacificus strain RSB020; assay: Mouth-form dimorphism assay; type: in vivo, Pristionchus pacificus; conditions: synthetic samples; first assayed at 1 μM
Procedure: Mouth-form dimorphism assays were performed using P. pacificus strain RSB020. The synthetic compounds dissolved in ethanol (0.5 mM) were diluted with water to make 100 μl solution and subsequently added to 3 mL NGM-agar (1 μM final concentration). The assay plates were seeded with 50 μl OP50 culture in LB medium and incubated overnight at 20° C. to allow bacterial growth. Each replicate included the progeny of two mothers, which were picked as adult hermaphrodites of a consistent age (carrying 4-6 eggs) and which were all from the same P. pacificus culture plate. Following the placement of mothers on assay plates, plates were kept at 20° C. for six days, such that the entire broods were adults at the time of screening. A random sample of 50 hermaphrodite progeny was screened per plate. All animals were screened by differential interference contrast (DIC) microscopy on a Zeiss Axiskop. The following discrete characters were used to discriminate eurystomatous from stenostomatous individuals, respectively: (1) claw-shaped vs. flint-shaped (i.e. dorsoventrally symmetrical) dorsal tooth; (2) presence vs. absence of a subventral tooth; (3) strongly vs. weakly sclerotized stomatal walls. No intermediate mouth-forms were observed. Experiments were conducted in triplicate for each treatment. In assays of responses to compounds of several concentrations (1, 0.3, 0.1, 0.03, 0.01 μM final concentrations), experiments were performed as described above, with the following modifications. To allow greater resolution of responses to lower concentrations, 60 randomly screened individuals in each of five replicates per concentration per compound were assayed. All concentration-curve experiments were performed in parallel using mothers picked randomly from the same two source populations. To prepare large numbers of individual mothers for these experiments, source populations were established from virgin hermaphrodites to constrain the presence of males and were conditioned to well-fed and ambient conditions for at least one generation before mothers were picked for the assays.

P. pacificus = assay: Dauer formation assay; type: in vivo, Pristionchus pacificus; conditions: synthetic samples; first assayed at 1 μM
Procedure: Dauer formation assays were performed as described in Ogawa et al., Curr. Biol. 19:67-71 (2009), which is hereby incorporated by reference in its entirety, using heat- or kanamycin-killed E. coli OP50. Synthetic compounds were dissolved in ethanol (0.5 mM, stock solution) and combined with water to make a […] and subsequently added to 3 mL NGM-agar without peptone ([…], 0.3, 0.1 μM final concentrations).

Row | SMILES | promotion of dauer entry (C. elegans) | male attraction from a distance / chemotaxis towards a point source (C. elegans males) | dauer larvae that moved away from the release location, normalized to the percent of the positive control response (C. elegans dauer larvae) | preference for areas conditioned by the ascaroside [2] | dispersal activity in combination with natural fractions B and C (S. feltiae IJs) | dispersal activity when tested alone (S. feltiae IJs) | induction of the eurystomatous mouth form [3] | further results
1 | CC(=O)CCC[C@@H](C)O[C@@H]1O[C@@H](C)[C@H](O)C[C@H]1O [ascr#2] | individually promote dauer entry | chemotax towards | 40% |  |  |  |  | most active amount for attraction in C. elegans [1]: ~1 pmol; lowest amount eliciting male attraction (as low as) (C. elegans males): 500 attomol
2 | C[C@H](CC/C=C/C(=O)Nc1ccc(C(=O)O)cc1)O[C@@H]1O[C@@H](C)[C@H](O)C[C@H]1O [ascr#8] | individually promote dauer entry | not active | 50% | preferred |  |  |  | 
3 | C[C@H](CCC(=O)O)O[C@@H]1O[C@@H](C)[C@H](O)C[C@H]1O [ascr#9] |  |  |  | preferred | restored the original dispersal activity | did not have activity by themselves | inactive | substitution for ascr#2 in the C. elegans dispersal blend (C. elegans dauer larvae): can replace the function of ascr#2; substitution for ascr#2 in the C. elegans dispersal blend (C. elegans dauer larvae; listed as Ascr#9): able to substitute for its structural analog ascr#2
4 | C[C@H](CC(=O)O)O[C@@H]1O[C@@H](C)[C@H](O)C[C@H]1O [ascr#11] |  |  |  |  | restored the full activity; also recorded: sufficient to cause dispersal | did not have activity by themselves |  | 
5 | C[C@H](CCC(=O)O)O[C@@H]1O[C@@H](C)[C@H](O)C[C@@H]1O [part#9, (R)-4-(((2R,3S,5R,6S)-3,5-dihydroxy-6-methyltetrahydro-2H-pyran-2-yl)oxy)pentanoic acid] |  |  |  |  |  |  | inactive | dauer induction (P. pacificus): weaker dauer inducation
